From patent US8673910B2, “Proteasome inhibitors for selectively inducing apoptosis in cancer cells” (H. Lee Moffitt Cancer Center and Research Institute, priority 2008, dated 2014) come the findings set out here.

Molecule `COc1cnc(NS(=O)(=O)c2ccc(NC3=C(C)C(=O)c4ccccc4C3=O)cc2)nc1` [Compound 2m, N-(5-methoxypyrimidin-2-yl)-4-(3-methyl-1,4-dioxo-1,4-dihydronaphthalen-2-ylamino)-benzenesulfonamide] had a melting point of 215 to 217 °C.
For `Cc1ccc(NS(=O)(=O)c2ccc(NC3=C(Cl)C(=O)c4ccccc4C3=O)cc2)cc1` [Compound 13g, 4-(3-chloro-1,4-dioxo-1,4-dihydro-naphthalen-2-ylamino)-N-p-tolyl-benzenesulfonamide] the value was 257 to 260 °C; for `O=C1C(Cl)=C(Nc2ccc(S(=O)(=O)Nc3ccccc3)cc2)C(=O)c2ccccc21` [Compound 13b, 4-(3-chloro-1,4-dioxo-1,4-dihydro-naphthalen-2-ylamino)-N-phenyl-benzenesulfonamide], 220 to 223 °C; for `O=C1C(Cl)=C(N(Cc2ccc3ccccc3c2)c2ccc(S(=O)(=O)Nc3ccccn3)cc2)C(=O)c2ccccc21` [Compound 6f, 4-((3-chloro-1,4-dioxo-1,4-dihydronaphthalen-2-yl)(naphthalen-2-ylmethyl)amino)-N-(pyridin-2-yl)benzenesulfonamide], 165 to 167 °C.
Regarding `O=C1C=C(Nc2ccc(S(=O)(=O)Nc3ccccn3)cc2)C(=O)c2ccccc21` [Compound 2r, 4-(1,4-dioxo-1,4-dihydronaphthalen-2-ylamino)-N-(pyridin-2-yl)benzenesulfonamide], the melting point was 286 °C (dec.).
For `COc1cc(NS(=O)(=O)c2ccc(NC3=C(Cl)C(=O)c4ccccc4C3=O)cc2)nc(OC)n1` [Compound 2i, 4-(3-chloro-1,4-dioxo-1,4-dihydronaphthalen-2-ylamino)-N-(2,6-dimethoxypyrimidin-4-yl)-benzenesulfonamide] the value was 220 to 222 °C; for `CCN(C1=C(Cl)C(=O)c2ccccc2C1=O)c1ccc(S(=O)(=O)Nc2ccccn2)cc1` [Compound 6b, 4-((3-chloro-1,4-dioxo-1,4-dihydronaphthalen-2-yl)(ethyl)amino)-N-(pyridin-2-yl)benzenesulfonamide], 180 to 182 °C.
With `CC1=C(Nc2ccc(S(=O)(=O)Nc3ccccn3)cc2)C(=O)c2ccccc2C1=O` [Compound 2k, 4-(3-methyl-1,4-dioxo-1,4-dihydronaphthalen-2-ylamino)-N-(pyridin-2-yl)benzenesulfonamide], the melting point was 220 to 222 °C.
The molecule `COc1ccc(NS(=O)(=O)c2ccc(NC3=C(Cl)C(=O)c4ccccc4C3=O)cc2OC)cc1` [Compound 13j, 4-(3-chloro-1,4-dioxo-1,4-dihydro-naphthalen-2-ylamino)-2-methoxy-N-(4-methoxy-phenyl)-benzenesulfonamide] showed a melting point of 165 to 167 °C.
Regarding `COc1cc(NS(=O)(=O)c2ccc(NC3=C(C)C(=O)c4ccccc4C3=O)cc2)nc(OC)n1` [Compound 2n, N-(2,6-dimethoxypyrimidin-4-yl)-4-(3-methyl-1,4-dioxo-1,4-dihydronaphthalen-2-ylamino)-benzenesulfonamide], the melting point lay in the range of 255 to 257 °C.
For `COc1ccccc1NS(=O)(=O)c1ccc(NC2=C(Cl)C(=O)c3ccccc3C2=O)cc1` [Compound 13d, 4-(3-chloro-1,4-dioxo-1,4-dihydro-naphthalen-2-ylamino)-N-(2-methoxy-phenyl)-benzenesulfonamide] the value was 198 to 201 °C.
For `CN(C)C1=C(Nc2ccc(S(=O)(=O)Nc3ccccn3)cc2)C(=O)c2ccccc2C1=O` [Compound 3a, 4-(3-(dimethylamino)-1,4-dioxo-1,4-dihydronaphthalen-2-ylamino)-N-(pyridin-2-yl)-benzenesulfonamide] the value was 118 to 120 °C.
As to `COc1cccc(NS(=O)(=O)c2ccc(NC3=C(Cl)C(=O)c4ccccc4C3=O)cc2)c1` [Compound 13e, 4-(3-chloro-1,4-dioxo-1,4-dihydro-naphthalen-2-ylamino)-N-(3-methoxy-phenyl)-benzenesulfonamide], the melting point lay within 213 to 216 °C.
For `O=C1C(Cl)=C(N(Cc2ccc(C(F)(F)F)cc2)c2ccc(S(=O)(=O)Nc3ccccn3)cc2)C(=O)c2ccccc21` [Compound 6h, 4-((3-chloro-1,4-dioxo-1,4-dihydronaphthalen-2-yl)(4-(trifluoromethyl)benzyl)amino)-N-(pyridin-2-yl)benzenesulfonamide], the melting point lay in the range of 157 to 159 °C.
The molecule `COc1ccc(NS(=O)(=O)c2ccc(NC3=C(Cl)C(=O)c4ccccc4C3=O)cc2)cc1` [Compound 13f, 4-(3-chloro-1,4-dioxo-1,4-dihydro-naphthalen-2-ylamino)-N-(4-methoxy-phenyl)-benzenesulfonamide] came in with a melting point of 233 to 234 °C.
In turn, `COc1cc(NC2=C(Cl)C(=O)c3ccccc3C2=O)ccc1S(=O)(=O)Nc1cccc(C)c1` [Compound 13k, 4-(3-chloro-1,4-dioxo-1,4-dihydro-naphthalen-2-ylamino)-2-methoxy-N-m-tolyl-benzenesulfonamide] had a melting point of 264 to 267 °C.
For `CN(C1=C(Cl)C(=O)c2ccccc2C1=O)c1ccc(S(=O)(=O)Nc2ccccn2)cc1` [Compound 6a, 4-((3-chloro-1,4-dioxo-1,4-dihydronaphthalen-2-yl)(methyl)amino)-N-(pyridin-2-yl)benzenesulfonamide], the melting point was 152 to 154 °C.
In the case of `COc1cc(NC2=C(Cl)C(=O)c3ccccc3C2=O)ccc1S(=O)(=O)Nc1ccc(C)cc1` [Compound 13i, 4-(3-chloro-1,4-dioxo-1,4-dihydro-naphthalen-2-ylamino)-2-methoxy-N-p-tolyl-benzenesulfonamide] it was 186 to 189 °C.
In turn, `Cc1ccnc(NS(=O)(=O)c2ccc(NC3=C(Cl)C(=O)c4ccccc4C3=O)cc2)n1` [Compound 2j, 4-(3-chloro-1,4-dioxo-1,4-dihydronaphthalen-2-ylamino)-N-(4-methylpyrimidin-2-yl)-benzenesulfonamide] had a melting point of 246 to 248 °C.
In the case of `COc1cc(NC2=C(Cl)C(=O)c3ccccc3C2=O)ccc1S(=O)(=O)Nc1ccccc1C` [Compound 13h, 4-(3-chloro-1,4-dioxo-1,4-dihydro-naphthalen-2-ylamino)-2-methoxy-N-o-tolyl-benzenesulfonamide], the melting point lay in the range of 197 to 200 °C.
In turn, `CC1=C(Nc2ccc(S(=O)(=O)NC(=O)c3ccccc3)cc2)C(=O)c2ccccc2C1=O` [Compound 2l, N-(4-(3-methyl-1,4-dioxo-1,4-dihydronaphthalen-2-ylamino)phenylsulfonyl)benzamide] yielded a melting point of 235 to 237 °C.
For `Cc1ccc(CN(C2=C(Cl)C(=O)c3ccccc3C2=O)c2ccc(S(=O)(=O)Nc3ccccn3)cc2)cc1` [Compound 6g, 4-((3-chloro-1,4-dioxo-1,4-dihydronaphthalen-2-yl)(4-methylbenzyl)amino)-N-(pyridin-2-yl)benzenesulfonamide], the melting point fell in the range of 99 to 101 °C.
On to `Cc1cc(C)nc(NS(=O)(=O)c2ccc(NC3=C(Cl)C(=O)c4ccccc4C3=O)cc2)n1` [Compound 2g, 4-(3-chloro-1,4-dioxo-1,4-dihydronaphthalen-2-ylamino)-N-(4,6-dimethylpyrimidin-2-yl)benzenesulfonamide], for which the melting point was 210 °C (dec.).
For the molecule `O=C(NS(=O)(=O)c1ccc(NC2=CC(=O)c3ccccc3C2=O)cc1)c1ccccc1` [Compound 2p, N-(4-(1,4-dioxo-1,4-dihydronaphthalen-2-ylamino)phenylsulfonyl)benzamide], the melting point was in the range of 294 to 296 °C.
`Cc1cccc(NS(=O)(=O)c2ccc(NC3=C(Cl)C(=O)c4ccccc4C3=O)cc2)c1` [Compound 13c, 4-(3-chloro-1,4-dioxo-1,4-dihydro-naphthalen-2-ylamino)-N-m-tolyl-benzenesulfonamide] yielded a melting point of 234 to 237 °C.
Molecule `O=C1C(Nc2ccc(S(=O)(=O)Nc3ccccn3)cc2)=C(N2CCOCC2)C(=O)c2ccccc21` [Compound 3e, 4-(3-morpholino-1,4-dioxo-1,4-dihydronaphthalen-2-ylamino)-N-(pyridin-2-yl)benzenesulfonamide] gave a melting point of 220 to 222 °C.
For `O=C1C(Cl)=C(N(Cc2ccccc2)c2ccc(S(=O)(=O)Nc3ccccn3)cc2)C(=O)c2ccccc21` [Compound 6d, 4-(benzyl(3-chloro-1,4-dioxo-1,4-dihydronaphthalen-2-yl)amino)-N-(pyridin-2-yl)benzenesulfonamide] the value was 78 to 80 °C.
On to `O=C(NS(=O)(=O)c1ccc(NC2=C(Cl)C(=O)c3ccccc3C2=O)cc1)c1ccccc1` [Compound 2c, N-(4-(3-chloro-1,4-dioxo-1,4-dihydronaphthalen-2-ylamino)phenylsulfonyl)benzamide], for which the melting point was 216 to 217 °C.
As to `COc1cnc(NS(=O)(=O)c2ccc(NC3=C(Cl)C(=O)c4ccccc4C3=O)cc2)nc1` [Compound 2e, 4-(3-chloro-1,4-dioxo-1,4-dihydronaphthalen-2-ylamino)-N-(5-methoxypyrimidin-2-yl)benzenesulfonamide], the melting point was 269 to 271 °C.
As to `CN(Cc1ccccc1)C1=C(Nc2ccc(S(=O)(=O)Nc3ccccn3)cc2)C(=O)c2ccccc2C1=O` [Compound 3b, 4-(3-(benzyl(methyl)amino)-1,4-dioxo-1,4-dihydronaphthalen-2-ylamino)-N-(pyridin-2-yl)-benzenesulfonamide], the melting point lay within 135 to 140 °C.
For `N=C(N)NS(=O)(=O)c1ccc(NC2=C(Cl)C(=O)c3ccccc3C2=O)cc1` [YG1-084, N-carbamimidoyl-4-(3-chloro-1,4-dioxo-1,4-dihydronaphthalen-2-ylamino)benzene-sulfonamide], the melting point was in the range of 294 to 295 °C.
Take `O=C1C(Cl)=C(N(Cc2ccc([N+](=O)[O-])cc2)c2ccc(S(=O)(=O)Nc3ccccn3)cc2)C(=O)c2ccccc21` [Compound 6e, 4-((3-chloro-1,4-dioxo-1,4-dihydronaphthalen-2-yl)(4-nitrobenzyl)amino)-N-(pyridin-2-yl)benzenesulfonamide]: the melting point is 80 to 82 °C.
Turning to `CCCCN(C1=C(Cl)C(=O)c2ccccc2C1=O)c1ccc(S(=O)(=O)Nc2ccccn2)cc1` [Compound 6c, 4-(butyl(3-chloro-1,4-dioxo-1,4-dihydronaphthalen-2-yl)amino)-N-(pyridin-2-yl)benzenesulfonamide], the melting point is 181 to 183 °C.

Usually melting point stands for the temperature, or range, at which the solid turns liquid.
